Measured values taken from ChEMBL document CHEMBL5465560, “Selectivity Literature for EUbOPEN Chemogenomic Library” (2024).

Tests used:
[1] = Selectivity interaction (KinomeScan (DiscoverX)) EUB0000666a PKNB; conditions: at 10 µM
[2] = tested on: Receptor-type tyrosine-protein kinase FLT3 (Homo sapiens), P36888 [UNDEFINED MUTATION]; assay: Selectivity interaction (KinomeScan (DiscoverX)) EUB0001079a FLT3; conditions: at 1 µM
[3] = target: Mitogen-activated protein kinase kinase kinase 20 (Homo sapiens) (UniProt Q9NYL2); assay: Selectivity interaction (Kinase panel (KiNativ target engagement assay in Jurkat cells)) EUB0001635a MAP3K20; type: cell-based; conditions: Selectivity number of off-targets 0.0, Selectivity number of targets 233.0, Source Knowledge https://www.sciencedirect.com/science/article/pii/S2451945619300674?via%3Dihub, at 1 µM
Chain of Mitogen-activated protein kinase kinase kinase 20 (Homo sapiens) (Q9NYL2 2-800 limits assumed): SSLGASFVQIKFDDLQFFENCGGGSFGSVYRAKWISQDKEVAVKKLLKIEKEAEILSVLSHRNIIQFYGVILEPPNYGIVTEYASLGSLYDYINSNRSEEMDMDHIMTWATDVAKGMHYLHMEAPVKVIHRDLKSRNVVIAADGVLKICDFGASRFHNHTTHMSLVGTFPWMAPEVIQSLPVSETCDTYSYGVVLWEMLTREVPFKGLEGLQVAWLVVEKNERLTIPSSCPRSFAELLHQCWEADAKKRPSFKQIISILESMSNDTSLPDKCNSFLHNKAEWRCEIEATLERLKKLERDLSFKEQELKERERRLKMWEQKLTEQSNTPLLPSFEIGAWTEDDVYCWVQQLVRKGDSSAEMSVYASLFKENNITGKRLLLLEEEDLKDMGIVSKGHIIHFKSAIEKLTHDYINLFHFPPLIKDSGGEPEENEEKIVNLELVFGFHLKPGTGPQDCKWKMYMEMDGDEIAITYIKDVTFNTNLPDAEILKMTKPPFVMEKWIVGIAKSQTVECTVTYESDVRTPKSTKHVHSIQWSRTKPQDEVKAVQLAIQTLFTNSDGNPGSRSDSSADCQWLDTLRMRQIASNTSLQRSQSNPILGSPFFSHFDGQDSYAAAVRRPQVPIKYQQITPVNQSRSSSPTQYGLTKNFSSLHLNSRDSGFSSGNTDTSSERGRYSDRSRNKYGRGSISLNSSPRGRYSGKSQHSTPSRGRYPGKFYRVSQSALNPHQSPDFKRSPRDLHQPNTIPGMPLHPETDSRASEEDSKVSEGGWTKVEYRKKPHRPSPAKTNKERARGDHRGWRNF

[4] = target: Serine/threonine-protein kinase MARK2 (Homo sapiens) (UniProt Q7KZI7); assay: Selectivity interaction (Kinase panel (KiNativ target engagement assay in Jurkat cells)) EUB0001635a MARK2; type: cell-based; conditions: Selectivity number of off-targets 0.0, Selectivity number of targets 233.0, Source Knowledge https://www.sciencedirect.com/science/article/pii/S2451945619300674?via%3Dihub, at 1 µM
Chain of Serine/threonine-protein kinase MARK2 (Homo sapiens) (Q7KZI7 whole entry): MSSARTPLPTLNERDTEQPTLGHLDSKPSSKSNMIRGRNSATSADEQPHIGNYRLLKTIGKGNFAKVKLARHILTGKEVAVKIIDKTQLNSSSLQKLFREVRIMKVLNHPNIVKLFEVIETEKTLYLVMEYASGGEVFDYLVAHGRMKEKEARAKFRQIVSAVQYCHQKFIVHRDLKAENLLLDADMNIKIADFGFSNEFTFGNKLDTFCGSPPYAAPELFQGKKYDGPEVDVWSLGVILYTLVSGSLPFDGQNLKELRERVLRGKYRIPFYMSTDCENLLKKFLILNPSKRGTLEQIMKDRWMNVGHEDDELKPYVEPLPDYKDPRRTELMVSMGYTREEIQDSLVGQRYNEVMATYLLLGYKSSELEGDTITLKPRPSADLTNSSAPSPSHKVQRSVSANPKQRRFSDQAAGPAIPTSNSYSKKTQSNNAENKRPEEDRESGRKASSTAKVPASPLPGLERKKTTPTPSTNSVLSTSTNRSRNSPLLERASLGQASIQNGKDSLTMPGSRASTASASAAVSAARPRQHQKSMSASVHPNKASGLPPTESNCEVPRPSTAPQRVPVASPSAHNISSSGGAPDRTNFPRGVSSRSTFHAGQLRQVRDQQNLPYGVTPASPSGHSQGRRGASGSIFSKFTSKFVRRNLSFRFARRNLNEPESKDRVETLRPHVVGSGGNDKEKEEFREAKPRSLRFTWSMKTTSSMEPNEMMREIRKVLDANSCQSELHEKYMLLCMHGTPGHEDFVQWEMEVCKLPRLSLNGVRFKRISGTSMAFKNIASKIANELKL

[5] = target: Protein kinase C delta type (Homo sapiens) (UniProt Q05655); assay: Selectivity interaction (ActivX KiNativ screen (kinase selectivity in THP-1 cell lysates)) EUB0000639a PRKCD; type: subcellular; conditions: lysate
Chain of Protein kinase C delta type (Homo sapiens) (Q05655 whole entry, looked up): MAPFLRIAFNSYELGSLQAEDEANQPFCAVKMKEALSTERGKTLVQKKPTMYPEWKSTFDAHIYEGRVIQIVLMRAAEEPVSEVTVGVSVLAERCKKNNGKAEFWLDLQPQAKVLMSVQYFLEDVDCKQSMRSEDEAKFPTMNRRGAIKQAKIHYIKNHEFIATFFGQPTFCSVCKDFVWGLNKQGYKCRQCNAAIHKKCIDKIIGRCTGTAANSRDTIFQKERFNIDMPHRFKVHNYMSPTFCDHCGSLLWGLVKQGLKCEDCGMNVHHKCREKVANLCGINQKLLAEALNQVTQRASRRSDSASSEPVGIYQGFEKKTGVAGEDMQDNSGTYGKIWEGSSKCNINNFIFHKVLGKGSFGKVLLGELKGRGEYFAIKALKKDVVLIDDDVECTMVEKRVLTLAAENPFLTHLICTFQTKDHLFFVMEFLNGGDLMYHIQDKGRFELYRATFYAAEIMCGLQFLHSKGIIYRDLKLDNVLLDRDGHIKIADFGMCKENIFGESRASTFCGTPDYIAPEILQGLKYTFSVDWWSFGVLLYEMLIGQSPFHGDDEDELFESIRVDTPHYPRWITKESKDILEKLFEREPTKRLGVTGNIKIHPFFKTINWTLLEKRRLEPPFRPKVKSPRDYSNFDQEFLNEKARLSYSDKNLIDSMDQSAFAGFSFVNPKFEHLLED

[6] = target: Eukaryotic translation initiation factor 2-alpha kinase 1 (Homo sapiens) (UniProt Q9BQI3); assay: Selectivity interaction (KinomeScan (DiscoverX)) EUB0000595a EIF2AK1; conditions: at 10 µM
Chain of Eukaryotic translation initiation factor 2-alpha kinase 1 (Homo sapiens) (Q9BQI3 whole entry): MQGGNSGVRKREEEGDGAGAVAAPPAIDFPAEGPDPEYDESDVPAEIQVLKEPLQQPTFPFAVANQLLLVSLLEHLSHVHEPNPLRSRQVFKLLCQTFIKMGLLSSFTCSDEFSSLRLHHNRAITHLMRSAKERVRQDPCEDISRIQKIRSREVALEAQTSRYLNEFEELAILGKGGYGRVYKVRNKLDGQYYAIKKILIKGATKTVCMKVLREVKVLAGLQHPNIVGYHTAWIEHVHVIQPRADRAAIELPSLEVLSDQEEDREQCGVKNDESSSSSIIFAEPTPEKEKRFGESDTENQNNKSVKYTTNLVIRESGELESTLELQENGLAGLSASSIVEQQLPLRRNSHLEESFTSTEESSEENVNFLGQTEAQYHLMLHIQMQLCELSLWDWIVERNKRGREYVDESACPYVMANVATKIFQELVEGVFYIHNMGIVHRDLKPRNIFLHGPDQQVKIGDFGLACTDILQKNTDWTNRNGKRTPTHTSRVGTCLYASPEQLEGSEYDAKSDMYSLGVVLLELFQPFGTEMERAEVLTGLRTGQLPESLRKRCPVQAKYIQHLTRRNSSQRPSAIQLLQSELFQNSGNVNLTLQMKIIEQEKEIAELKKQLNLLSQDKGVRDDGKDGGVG

[7] = target: T1, Serine/threonine-protein kinase TAO2 (Homo sapiens) (UniProt Q9UL54); conditions: at 10 µM
T1 sequence (whole entry): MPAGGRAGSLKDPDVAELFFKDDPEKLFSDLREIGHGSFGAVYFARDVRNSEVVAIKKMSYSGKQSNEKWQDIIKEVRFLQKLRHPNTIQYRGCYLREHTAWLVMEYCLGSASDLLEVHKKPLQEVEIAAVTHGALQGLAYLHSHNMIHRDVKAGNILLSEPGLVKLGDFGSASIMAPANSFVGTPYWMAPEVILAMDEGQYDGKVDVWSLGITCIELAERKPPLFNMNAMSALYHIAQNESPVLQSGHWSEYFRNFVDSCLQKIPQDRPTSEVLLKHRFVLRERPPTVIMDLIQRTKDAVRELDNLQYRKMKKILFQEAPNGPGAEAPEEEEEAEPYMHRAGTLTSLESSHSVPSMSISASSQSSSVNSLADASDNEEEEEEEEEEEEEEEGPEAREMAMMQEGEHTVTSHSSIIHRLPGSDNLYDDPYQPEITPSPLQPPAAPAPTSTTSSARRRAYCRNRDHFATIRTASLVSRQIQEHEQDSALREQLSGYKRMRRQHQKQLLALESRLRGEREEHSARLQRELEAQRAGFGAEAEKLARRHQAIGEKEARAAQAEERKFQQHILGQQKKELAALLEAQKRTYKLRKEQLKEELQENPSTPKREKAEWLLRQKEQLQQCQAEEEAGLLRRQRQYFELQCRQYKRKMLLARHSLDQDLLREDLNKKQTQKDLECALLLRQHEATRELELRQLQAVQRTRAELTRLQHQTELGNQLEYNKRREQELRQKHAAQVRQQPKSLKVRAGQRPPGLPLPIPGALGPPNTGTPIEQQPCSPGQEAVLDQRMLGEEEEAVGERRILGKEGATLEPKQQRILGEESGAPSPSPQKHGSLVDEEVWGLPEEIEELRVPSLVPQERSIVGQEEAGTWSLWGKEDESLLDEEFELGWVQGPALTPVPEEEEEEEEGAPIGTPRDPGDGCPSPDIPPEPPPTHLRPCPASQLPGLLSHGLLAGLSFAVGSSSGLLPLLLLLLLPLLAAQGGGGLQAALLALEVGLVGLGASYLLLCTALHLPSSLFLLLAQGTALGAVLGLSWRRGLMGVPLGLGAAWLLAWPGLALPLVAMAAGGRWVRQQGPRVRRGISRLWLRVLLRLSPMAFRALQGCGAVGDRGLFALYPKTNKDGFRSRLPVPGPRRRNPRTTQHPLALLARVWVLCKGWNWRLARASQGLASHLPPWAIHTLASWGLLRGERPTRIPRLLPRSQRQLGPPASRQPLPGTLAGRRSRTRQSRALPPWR

[8] = target: Platelet-derived growth factor receptor beta (Homo sapiens, UniProt P09619); assay: Selectivity interaction (KinomeScan (DiscoverX)) EUB0001619a PDGFRB; conditions: at 1 µM
[9] = target: Ribosomal protein S6 kinase alpha-1 (Homo sapiens, UniProt Q15418); assay: Selectivity interaction (KinomeScan (DiscoverX)) EUB0001619a RPS6KA1; conditions: at 1 µM
Chain of Ribosomal protein S6 kinase alpha-1 (Q15418 whole entry): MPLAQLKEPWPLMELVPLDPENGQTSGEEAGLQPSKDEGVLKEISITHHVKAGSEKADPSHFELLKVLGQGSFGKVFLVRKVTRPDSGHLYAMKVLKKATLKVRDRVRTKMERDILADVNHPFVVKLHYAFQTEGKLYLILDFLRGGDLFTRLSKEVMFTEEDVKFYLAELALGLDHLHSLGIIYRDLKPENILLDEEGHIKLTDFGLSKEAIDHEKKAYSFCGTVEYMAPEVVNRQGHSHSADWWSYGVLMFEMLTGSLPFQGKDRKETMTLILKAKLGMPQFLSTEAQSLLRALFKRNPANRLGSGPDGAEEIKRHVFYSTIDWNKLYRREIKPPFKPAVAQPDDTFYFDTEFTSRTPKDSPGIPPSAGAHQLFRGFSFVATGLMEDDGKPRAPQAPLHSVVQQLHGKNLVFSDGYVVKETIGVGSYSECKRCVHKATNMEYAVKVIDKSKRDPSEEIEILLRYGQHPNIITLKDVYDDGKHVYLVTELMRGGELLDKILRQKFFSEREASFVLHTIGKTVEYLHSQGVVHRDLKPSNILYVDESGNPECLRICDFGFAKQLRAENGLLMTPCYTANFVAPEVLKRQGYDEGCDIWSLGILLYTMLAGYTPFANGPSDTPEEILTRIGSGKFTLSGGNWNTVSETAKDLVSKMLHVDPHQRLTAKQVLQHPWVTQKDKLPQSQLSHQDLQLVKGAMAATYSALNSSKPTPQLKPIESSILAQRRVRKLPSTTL

[10] = target: Ribosomal protein S6 kinase alpha-5 (Homo sapiens) (UniProt O75582); assay: Selectivity interaction (ActivX KiNativ screen (ex vivo kinase selectivity in human PBMCs)) EUB0001619a RPS6KA5; type: cell-based; conditions: PBMC, at 1 µM
[11] = target: T2, Serine/threonine-protein kinase TBK1 (Homo sapiens) (UniProt Q9UHD2); assay: Selectivity interaction (Upstate Kinase Profiler service (Millipore)) EUB0000056c TBK1; conditions: at 1 µM
T2 sequence (whole entry): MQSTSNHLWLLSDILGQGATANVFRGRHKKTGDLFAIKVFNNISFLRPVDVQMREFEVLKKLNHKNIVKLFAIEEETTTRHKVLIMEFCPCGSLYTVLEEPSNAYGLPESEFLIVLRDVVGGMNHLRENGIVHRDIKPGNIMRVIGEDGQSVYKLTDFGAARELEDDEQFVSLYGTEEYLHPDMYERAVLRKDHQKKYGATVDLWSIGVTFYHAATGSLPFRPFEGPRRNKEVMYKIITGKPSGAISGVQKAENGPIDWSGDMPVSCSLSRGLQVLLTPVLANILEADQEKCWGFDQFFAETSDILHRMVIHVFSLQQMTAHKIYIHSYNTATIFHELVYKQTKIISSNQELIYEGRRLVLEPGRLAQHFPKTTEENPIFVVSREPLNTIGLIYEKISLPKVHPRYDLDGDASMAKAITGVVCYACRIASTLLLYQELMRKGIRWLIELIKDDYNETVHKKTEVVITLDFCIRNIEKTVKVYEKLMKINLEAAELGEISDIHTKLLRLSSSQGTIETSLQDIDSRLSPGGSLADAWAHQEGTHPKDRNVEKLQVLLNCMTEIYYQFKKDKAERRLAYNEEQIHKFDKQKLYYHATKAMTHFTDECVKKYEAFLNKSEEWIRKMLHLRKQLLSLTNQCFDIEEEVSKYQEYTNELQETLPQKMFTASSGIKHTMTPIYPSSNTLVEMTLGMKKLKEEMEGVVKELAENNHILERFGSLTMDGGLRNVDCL

[12] = target: Tyrosine-protein kinase Fes/Fps (Homo sapiens) (UniProt P07332); assay: Selectivity interaction (KinomeScan (DiscoverX)) EUB0000607a FES; conditions: at 10 µM
Chain of Tyrosine-protein kinase Fes/Fps (Homo sapiens) (P07332 whole entry): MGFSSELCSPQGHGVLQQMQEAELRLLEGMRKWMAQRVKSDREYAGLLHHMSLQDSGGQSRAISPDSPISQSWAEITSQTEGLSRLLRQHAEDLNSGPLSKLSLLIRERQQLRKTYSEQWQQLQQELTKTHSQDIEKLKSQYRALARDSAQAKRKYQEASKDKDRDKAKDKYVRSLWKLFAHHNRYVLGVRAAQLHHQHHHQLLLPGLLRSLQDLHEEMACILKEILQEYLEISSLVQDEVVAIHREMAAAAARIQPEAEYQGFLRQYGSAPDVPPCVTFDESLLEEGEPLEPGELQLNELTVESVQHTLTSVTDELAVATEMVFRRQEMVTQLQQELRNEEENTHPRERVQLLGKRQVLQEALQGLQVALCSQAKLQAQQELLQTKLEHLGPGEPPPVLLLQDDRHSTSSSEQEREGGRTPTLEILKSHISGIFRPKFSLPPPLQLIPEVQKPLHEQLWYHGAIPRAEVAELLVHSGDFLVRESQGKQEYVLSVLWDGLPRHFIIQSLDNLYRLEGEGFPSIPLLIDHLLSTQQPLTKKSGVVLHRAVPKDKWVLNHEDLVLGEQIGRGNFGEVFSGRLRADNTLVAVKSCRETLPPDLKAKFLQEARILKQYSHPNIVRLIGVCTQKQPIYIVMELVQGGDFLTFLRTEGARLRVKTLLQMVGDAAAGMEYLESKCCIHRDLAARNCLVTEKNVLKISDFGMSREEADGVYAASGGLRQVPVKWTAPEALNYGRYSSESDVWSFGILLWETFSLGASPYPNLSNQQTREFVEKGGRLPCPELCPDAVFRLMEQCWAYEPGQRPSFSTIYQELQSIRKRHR

[13] = target: Serine/threonine-protein kinase MARK2 (Homo sapiens) (UniProt Q7KZI7); assay: Selectivity interaction (KinomeScan (DiscoverX)) EUB0000607a MARK2; conditions: at 10 µM

O=C(NOC[C@H](O)CO)c1ccc(F)c(F)c1Nc1ccc(I)cc1F
% of control [1]: 91%

Nc1cnc(N2CCc3cc(S(=O)(=O)Nc4c(F)cc(Cl)cc4F)cc(N4CCCC4=O)c32)nc1 [TP-020n]
% of control [2]: 100%

C=CC(=O)Nc1ccc(C(=O)Nc2[nH]nc3c2CN(C(=O)N[C@H](CN(C)C)c2ccccc2)C3(C)C)cc1
% of engagement [3]: -9.7% | % of engagement [4]: 6.7%

CC[C@@H]1[C@H](F)C(=O)N[C@@H]1COc1nccc2cc(C(N)=O)c(OC)cc12 [ZIMLOVISERTIB]
% of inhibition ([5]; at 0.01 µM): -1% | % of inhibition ([5]; at 0.04 µM): -2% | % of inhibition ([5]; at 0.2 µM): 1.3% | % of inhibition ([5]; at 1 µM): 7.2% | % of inhibition ([5]; at 5 µM): -13.1%

COCC(=O)NC/C=C/c1ccc2ncnc(Nc3ccc(Oc4ccc(C)nc4)c(C)c3)c2c1 [CP-724714]
% of control [6]: 100%

Cc1cc([C@@H](C)Nc2ccccc2C(=O)O)c2nc(N3CCOCC3)cc(=O)n2c1 [AZD-6482]
% of control [7]: 94%

N#Cc1cccc(-c2c[nH]c3ncnc(N4CCOCC4)c23)c1
% of control [8]: 90% | % of control [9]: 100% | % of inhibition [10]: 20%

Cc1ccc(-c2ccc3c(ccc4sc5c(c43)NC[C@@H](C)NC5=O)n2)cn1
% of inhibition [11]: 18%

CNC(=O)Nc1ccc(-c2nc(N3CC4CCC(C3)O4)c3cnn(C4CCC5(CC4)OCCO5)c3n2)cc1
% of control [12]: 100% | % of control [13]: 100%
